Source: PMC5055185, “Dual pharmacological inhibition of glutathione and thioredoxin systems synergizes to kill colorectal carcinoma stem cells” (Cancer Medicine, 2016)
Values joined by “and” are separate entries in the source; they are usually repeats but may differ in a detail not shown here. Equal entries are not always repeated.

Key:
Format in all cases: cell-based, human
[1] = system: phosphorylated NRF2 in colorectal CTOSs; assay: NRF2 phosphorylation by western blotting, colorectal CTOSs; details: 24 hours, Auranofin 2µM, Piperlongumine 5µM, CB83 12.5 µM
Experimental: From colorectal CTOS, whole‐cell proteins were dissolved with solubilizer (7 mol/L urea, 2 mol/L thiourea, 2% Triton X‐100, Wako) and the entangled genomic DNA was sheared by sonication for 30 min. Procedures for immunoblotting have been described elsewhere 6, 10. Primary antibodies used in this study are as follows: phosphorylated NRF2 from Abcam (#76026) and Histone H3 from Cell Signaling Technologies (#4499, Danvers, MA). Phosphorylation of NRF2 is well correlated with nuclear accumulation in HCCs 6. Representative data are shown in the figures; all experiments were reproduced at least twice with different passage points.
Colorectal CTOSs were incubated with each inhibitor for 24 hours. Whole cell proteins were extracted and each well was loaded with same amount of proteins (40 µg for NRF2 and 10 µg for H3). Phosphorylation of NRF2 was measured by western blotting. Blotting for histone H3 serves as loading control.

[2] = system: CTOS88 colorectal cancer tissue‐originated spheroids; assay: cell survival (trypan blue exclusion, 5 days), CTOS88; details: for Ratio of survived cells (Drugs treated/Untreated), #3: passage point #3; for Ratio of survived cells (Drugs treated/Untreated), #4: passage point #4; for Ratio of survived cells (Drugs treated/Untreated), #5: passage point #5; for Ratio of survived cells (Drugs treated/Untreated), #1: passage point #1; for Ratio of survived cells (Drugs treated/Untreated), #6: passage point #6
Description: All experimental procedures were approved by the animal facility at Dokkyo Medical University (ID: 951) and were described elsewhere 10. The existence of CSCs has been experimentally proven through serial xenotransplantation and tumorigenesis 2, 14. […] These subcutaneous tumors were again subjected to enzymatic dissociation and some of the tumor cells were subcutaneously transplanted into other mice. […] Seven cases (CTOS:40, 42, 68, 71, 76, 86, 88) were used for in vitro experiments.
(§1) Modified procedures of CTOS culture 16 were described elsewhere 10. […] The culture medium was serum‐free advanced DMEM/F‐12 (GIBCO, Waltham, MA) supplemented with FGF‐2 (10 ng/mL, ReproCell, Yokohama, Japan), penicillin ([…], Wako, Osaka, Japan), streptomycin (0.1 mg/mL,Wako), gentamicin (50 μg/mL, Wako), and fungizone (0.25 μg/mL, GIBCO). DLD‐1 and HCT116 CRC cell lines were purchased from JCRB Cell Bank (Osaka, Japan) and RIKEN BioResource Center (Ibaraki, Japan), respectively. In order to estimate pharmacological side effects against normal tissues, human diploid fibroblasts were purchased (JCRB Cell Bank) as model cells. The origins of the fibroblasts were as follows: OUMS‐36 (embryo), TIG‐3 (fetal lung), TIG‐111 (dermal fibroblasts [DFs] from individual), TIG‐119 (DFs from individual), and TIG‐102 (DFs from individual). Adult DFs were purchased from Kurabo (Osaka, Japan). CRC cell lines and fibroblasts were maintained under supplier‐recommended culture conditions. Since the culture conditions are different between fibroblasts and CTOSs, we need to be cautious about the interpretation of data (i.e., lateral comparison between them). […] Colorectal CTOSs display augmented survival through maintaining epithelial structure with E‐cadherin 16. On the other hand, the establishment of conventional cell lines (adherent culture) are much less efficient because constant cell division and autonomous survival are required for the procedure. When we choose CTOSs instead of cancer cell lines, we lose the equivalent condition (adherent culture) as a trade‐off.
Each drug's half‐maximal inhibitory concentration (IC50) was calculated based on live cell number ratios (drug treated/untreated × 100%) obtained from serial dilution of drug concentration. The length of drug exposure was 5 days. Each number of live cells was counted automatically by trypan blue exclusion (LUNA automated cell counter, Logos Biosystems, Anyang, South Korea). Cancer spheroids were dispersed with serial treatments (20 min each) of TrypLE™ and Accumax™. Thus, IC50 was determined based on cellular survival, but not on proliferation.

[3] = system: TIG‐119 dermal fibroblasts; assay: cell survival (trypan blue exclusion, 5 days), TIG-119; details: for IC50: TIG119, cellular survival, 5 days
Experimental: as §1
Each drug's half‐maximal inhibitory concentration (IC50) was calculated based on live cell number ratios (drug treated/untreated × 100%) obtained from serial dilution of drug concentration. The length of drug exposure was 5 days. Each number of live cells was counted automatically by trypan blue exclusion (LUNA automated cell counter, Logos Biosystems, Anyang, South Korea). Cancer spheroids were dispersed with serial treatments (20 min each) of TrypLE™ and Accumax™. Thus, IC50 was determined based on cellular survival, but not on proliferation. We chose the survival index instead of the speed of growth because CTOSs in vitro show very slow proliferation (quiescence), which is one of the hallmarks of CSCs 2. The IC50 values of fibroblasts were accordingly determined based on cellular survival index during quiescence (by contact inhibition). […] To quantify the synergism of two distinct drugs, Combination Index (CI) was calculated 21. A CI value of about 1 (0.90–1.10) was defined as nearly additive and CI values more than (>1.10) and less than (<0.90) were defined as antagonism and synergism, respectively. IC50 and CI were determined using CompuSyn software (ComboSyn, Paramus, NK).

[4] = calculated from average % survival

CC[PH](CC)(CC)[Au][S][C@@H]1O[C@H](COC(C)=O)[C@@H](OC(C)=O)[C@H](OC(C)=O)[C@H]1OC(C)=O [Aura, Auranofin]
NRF2 phosphorylation [1]: efficiently phosphorylated
Ratio of survived cells (Drugs treated/Untreated), Average ([2]; Aura 1 microM): 78.3333%
Ratio of survived cells (Drugs treated/Untreated), #3 ([2]; Aura 1 microM): 91%
Ratio of survived cells (Drugs treated/Untreated), #4 ([2]; Aura 1 microM): 76%
Ratio of survived cells (Drugs treated/Untreated), #5 ([2]; Aura 1 microM): 68%
Ratio of survived cells (Drugs treated/Untreated), Average ([2]; Aura 2 microM): 67%
Ratio of survived cells (Drugs treated/Untreated), #3 ([2]; Aura 2 microM): 72%
Ratio of survived cells (Drugs treated/Untreated), #4 ([2]; Aura 2 microM): 61%
Ratio of survived cells (Drugs treated/Untreated), #5 ([2]; Aura 2 microM): 68%
Ratio of survived cells (Drugs treated/Untreated), Average ([2]; Aura 4 microM): 24.3333%
Ratio of survived cells (Drugs treated/Untreated), #1 ([2]; Aura 4 microM): 33%
Ratio of survived cells (Drugs treated/Untreated), #3 ([2]; Aura 4 microM): 23%
Ratio of survived cells (Drugs treated/Untreated), #5 ([2]; Aura 4 microM): 17%
IC50 [2, 4]: 2.34 µM
IC50 ([2]; cellular survival, 5 days): 2.34 µM
IC50 [3]: 1.17 µM
Ratio of survived cells (Drugs treated/Untreated), Average ([3]; TIG-119, Aura 1 microM): 53.3333%
Ratio of survived cells (Drugs treated/Untreated), Average ([3]; TIG-119, Aura 2 microM): 31.6667%
Ratio of survived cells (Drugs treated/Untreated), Average ([3]; TIG-119, Aura 4 microM): 5%

COc1cc(/C=C/C(=O)N2CCC=CC2=O)cc(OC)c1OC [Pipe, Piperlongumine]
NRF2 phosphorylation [1]: efficiently phosphorylated
Ratio of survived cells (Drugs treated/Untreated), Average ([2]; Pipe 2.5 microM): 75.3333%
Ratio of survived cells (Drugs treated/Untreated), #3 ([2]; Pipe 2.5 microM): 56%
Ratio of survived cells (Drugs treated/Untreated), #4 ([2]; Pipe 2.5 microM): 86%
Ratio of survived cells (Drugs treated/Untreated), #5 ([2]; Pipe 2.5 microM): 84%
Ratio of survived cells (Drugs treated/Untreated), Average ([2]; Pipe 5 microM): 44.8%
Ratio of survived cells (Drugs treated/Untreated), #1 ([2]; Pipe 5 microM): 44%
Ratio of survived cells (Drugs treated/Untreated), #3 ([2]; Pipe 5 microM): 33%
Ratio of survived cells (Drugs treated/Untreated), #4 ([2]; Pipe 5 microM): 57%
Ratio of survived cells (Drugs treated/Untreated), #5 ([2]; Pipe 5 microM): 29%
Ratio of survived cells (Drugs treated/Untreated), #6 ([2]; Pipe 5 microM): 61%
Ratio of survived cells (Drugs treated/Untreated), Average ([2]; Pipe 10 microM): 12.2%
Ratio of survived cells (Drugs treated/Untreated), #1 ([2]; Pipe 10 microM): 19%
Ratio of survived cells (Drugs treated/Untreated), #3 ([2]; Pipe 10 microM): 4%
Ratio of survived cells (Drugs treated/Untreated), #4 ([2]; Pipe 10 microM): 16%
Ratio of survived cells (Drugs treated/Untreated), #5 ([2]; Pipe 10 microM): 5%
Ratio of survived cells (Drugs treated/Untreated), #6 ([2]; Pipe 10 microM): 17%
IC50 [2, 4]: 4.25 µM
IC50 ([2]; cellular survival, 5 days): 4.25 µM
IC50 [3]: 7.48 µM
Ratio of survived cells (Drugs treated/Untreated), Average ([3]; TIG-119, Pipe 2.5 microM): 95.75%
Ratio of survived cells (Drugs treated/Untreated), single passage points # ([3]; TIG-119, Pipe 2.5 microM): 83% and 121% and 96%
Ratio of survived cells (Drugs treated/Untreated), Average ([3]; TIG-119, Pipe 5 microM): 80.75%
Ratio of survived cells (Drugs treated/Untreated), Average ([3]; TIG-119, Pipe 10 microM): 27%
